Experimental data reported in US11207320B2, “Compositions and methods for cancer expressing PDE3A or SLFN12” (The Broad Institute, Inc., priority 2015, dated 2021).
Where two headings read alike, the source gives them in different places.

Experiments:
Assay in all cases: Phosphodiesterase inhibition reactions (Caliper panel)
Assay type in all cases: biochemical
PDE3B = biological target: T1, PDE3B (Homo sapiens, UniProt Q13370); details: 100 nM
T1 construct: Caliper
Experimental: (§1) DNMDP concentration was 100 nM.

PDE8A1 = biological target: T2, PDE8A1 (Homo sapiens, UniProt O60658); details: PDE8A1, 100 nM
T2 construct: Caliper
Experimental: as §1

PDE4A1A = biological target: T3, PDE4A1A (Homo sapiens, UniProt P27815); details: 100 nM
T3 construct: Caliper
Experimental: as §1

PDE3A = PDE3A (Homo sapiens, UniProt Q14432); details: 100 nM
Chain of PDE3A (Q14432 whole entry): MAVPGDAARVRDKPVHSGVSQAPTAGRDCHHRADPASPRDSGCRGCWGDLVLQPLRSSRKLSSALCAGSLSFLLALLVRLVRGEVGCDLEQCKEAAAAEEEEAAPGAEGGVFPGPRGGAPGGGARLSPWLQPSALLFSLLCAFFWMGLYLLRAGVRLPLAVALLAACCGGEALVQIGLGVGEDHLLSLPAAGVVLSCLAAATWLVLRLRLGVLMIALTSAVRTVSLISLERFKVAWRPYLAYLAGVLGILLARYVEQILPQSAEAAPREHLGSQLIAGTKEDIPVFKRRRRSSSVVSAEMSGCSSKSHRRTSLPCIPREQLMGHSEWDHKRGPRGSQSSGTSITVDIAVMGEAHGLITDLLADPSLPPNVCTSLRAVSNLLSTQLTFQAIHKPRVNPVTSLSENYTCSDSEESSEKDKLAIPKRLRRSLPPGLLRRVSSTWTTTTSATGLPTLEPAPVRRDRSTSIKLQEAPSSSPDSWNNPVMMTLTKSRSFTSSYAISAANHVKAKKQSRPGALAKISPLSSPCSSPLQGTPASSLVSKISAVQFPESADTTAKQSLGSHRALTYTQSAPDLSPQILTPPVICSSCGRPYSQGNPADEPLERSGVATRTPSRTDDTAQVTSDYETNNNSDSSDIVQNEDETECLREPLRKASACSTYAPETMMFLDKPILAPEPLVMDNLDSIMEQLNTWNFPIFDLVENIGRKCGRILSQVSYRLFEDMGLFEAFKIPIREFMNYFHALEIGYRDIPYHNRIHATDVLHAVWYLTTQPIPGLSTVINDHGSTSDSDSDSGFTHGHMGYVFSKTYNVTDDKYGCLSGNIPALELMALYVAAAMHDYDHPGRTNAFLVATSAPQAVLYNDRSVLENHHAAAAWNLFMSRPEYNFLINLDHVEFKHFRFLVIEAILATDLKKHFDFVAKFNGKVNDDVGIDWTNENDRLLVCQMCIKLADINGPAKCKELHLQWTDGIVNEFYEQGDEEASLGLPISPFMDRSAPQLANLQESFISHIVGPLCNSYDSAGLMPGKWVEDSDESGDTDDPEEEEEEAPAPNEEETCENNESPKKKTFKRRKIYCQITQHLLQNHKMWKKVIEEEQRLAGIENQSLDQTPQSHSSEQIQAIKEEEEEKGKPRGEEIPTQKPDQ
Experimental: as §1

PDE11A = biological target: T4, PDE11A (Homo sapiens, UniProt Q9HCR9); details: 100 nM
T4 construct: Caliper
Experimental: as §1

PDE1B = biological target: T5, PDE1B (Homo sapiens, UniProt Q01064); details: 100 nM
T5 construct: Caliper
T5 sequence (Q01064 whole entry, species assumed): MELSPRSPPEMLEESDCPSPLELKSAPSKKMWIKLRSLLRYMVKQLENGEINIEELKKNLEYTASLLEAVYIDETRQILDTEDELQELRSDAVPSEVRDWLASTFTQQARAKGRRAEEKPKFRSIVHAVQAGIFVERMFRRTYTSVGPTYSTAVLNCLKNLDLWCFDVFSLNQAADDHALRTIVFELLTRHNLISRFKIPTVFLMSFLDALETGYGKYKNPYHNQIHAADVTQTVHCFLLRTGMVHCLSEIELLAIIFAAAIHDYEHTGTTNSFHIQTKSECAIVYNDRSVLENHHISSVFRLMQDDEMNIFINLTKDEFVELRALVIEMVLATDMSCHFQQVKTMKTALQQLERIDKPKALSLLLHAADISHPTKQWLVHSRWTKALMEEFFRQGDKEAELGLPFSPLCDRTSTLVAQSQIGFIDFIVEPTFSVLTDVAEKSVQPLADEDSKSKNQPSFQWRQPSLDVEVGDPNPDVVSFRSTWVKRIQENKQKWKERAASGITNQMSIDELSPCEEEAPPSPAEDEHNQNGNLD
Experimental: as §1

PDE4D3 = biological target: T6, PDE4D3 (Homo sapiens, UniProt Q08499); details: PDE4D3, 100 nM
T6 construct: Caliper
Experimental: as §1

PDE7A = biological target: T7, PDE7A (Homo sapiens, UniProt Q13946); details: 100 nM
T7 construct: Caliper
Experimental: as §1

PDE10A2 = biological target: T8, PDE10A2 (Homo sapiens, UniProt Q9Y233); details: PDE10A2, 100 nM
T8 construct: Caliper
Experimental: as §1

PDE9A2 = biological target: T9, PDE9A2 (Homo sapiens, UniProt O76083); details: PDE9A2, 100 nM
T9 construct: Caliper
T9 sequence (O76083 1-533 isoform O76083-2, species assumed): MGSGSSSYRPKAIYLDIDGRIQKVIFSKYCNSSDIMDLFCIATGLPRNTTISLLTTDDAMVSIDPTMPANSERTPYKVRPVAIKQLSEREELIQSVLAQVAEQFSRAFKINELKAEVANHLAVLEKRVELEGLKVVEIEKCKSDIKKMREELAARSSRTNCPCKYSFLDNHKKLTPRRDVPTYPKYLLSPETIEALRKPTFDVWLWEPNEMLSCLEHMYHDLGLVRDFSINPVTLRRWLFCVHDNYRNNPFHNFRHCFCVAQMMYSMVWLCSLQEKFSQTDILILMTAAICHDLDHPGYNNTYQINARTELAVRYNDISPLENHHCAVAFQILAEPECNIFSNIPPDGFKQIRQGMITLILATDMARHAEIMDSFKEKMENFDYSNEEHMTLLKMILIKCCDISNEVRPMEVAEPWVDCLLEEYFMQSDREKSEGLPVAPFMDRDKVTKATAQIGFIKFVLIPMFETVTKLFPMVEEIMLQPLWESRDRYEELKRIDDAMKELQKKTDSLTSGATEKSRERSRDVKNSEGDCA
Experimental: as §1

PDE10A1 = biological target: T10, PDE10A1 (Homo sapiens, UniProt Q9Y233); details: PDE10A1, 100 nM
T10 construct: Caliper
Experimental: as §1

PDE4C1 = biological target: T11, PDE4C1 (Homo sapiens, UniProt Q08493); details: PDE4C1, 100 nM
T11 construct: Caliper
Experimental: as §1

PDE2A = biological target: T12, PDE2A (Homo sapiens, UniProt O00408); details: 100 nM
T12 construct: Caliper
T12 sequence (O00408 whole entry, species assumed): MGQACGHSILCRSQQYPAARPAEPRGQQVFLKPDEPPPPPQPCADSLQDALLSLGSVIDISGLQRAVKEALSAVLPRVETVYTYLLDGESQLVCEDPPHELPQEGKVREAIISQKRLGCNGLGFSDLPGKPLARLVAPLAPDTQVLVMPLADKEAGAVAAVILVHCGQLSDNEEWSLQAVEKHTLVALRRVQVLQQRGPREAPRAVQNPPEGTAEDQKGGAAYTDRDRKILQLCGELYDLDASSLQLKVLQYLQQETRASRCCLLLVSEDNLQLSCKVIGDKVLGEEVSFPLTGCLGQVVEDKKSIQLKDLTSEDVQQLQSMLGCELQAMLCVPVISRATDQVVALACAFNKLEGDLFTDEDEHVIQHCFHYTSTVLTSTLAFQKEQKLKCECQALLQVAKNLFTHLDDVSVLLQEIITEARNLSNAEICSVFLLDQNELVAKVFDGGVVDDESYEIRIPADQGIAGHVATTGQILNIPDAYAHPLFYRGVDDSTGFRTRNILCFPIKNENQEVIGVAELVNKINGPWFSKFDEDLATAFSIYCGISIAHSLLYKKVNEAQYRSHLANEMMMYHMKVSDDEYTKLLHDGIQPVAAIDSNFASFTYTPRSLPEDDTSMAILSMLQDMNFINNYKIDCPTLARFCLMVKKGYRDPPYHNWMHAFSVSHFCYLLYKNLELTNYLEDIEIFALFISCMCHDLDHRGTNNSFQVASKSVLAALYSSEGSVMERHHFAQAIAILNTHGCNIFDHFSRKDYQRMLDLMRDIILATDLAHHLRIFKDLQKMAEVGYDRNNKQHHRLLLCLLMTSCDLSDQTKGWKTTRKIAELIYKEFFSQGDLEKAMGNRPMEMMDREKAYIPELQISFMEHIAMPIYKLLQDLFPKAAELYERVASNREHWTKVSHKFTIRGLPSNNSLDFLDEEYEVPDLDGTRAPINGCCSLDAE
Experimental: as §1

PDE1C = biological target: T13, PDE1C (Homo sapiens, UniProt Q14123); details: 100 nM
T13 construct: Caliper
Experimental: as §1

PDE1A1 = details: PDE1A1, 100 nM
Experimental: as §1

PDE4D7 = biological target: T14, PDE4D7 (Homo sapiens, UniProt Q08499); details: PDE4D7, 100 nM
T14 construct: Caliper
T14 sequence (Q08499 1-748 isoform Q08499-11, species assumed): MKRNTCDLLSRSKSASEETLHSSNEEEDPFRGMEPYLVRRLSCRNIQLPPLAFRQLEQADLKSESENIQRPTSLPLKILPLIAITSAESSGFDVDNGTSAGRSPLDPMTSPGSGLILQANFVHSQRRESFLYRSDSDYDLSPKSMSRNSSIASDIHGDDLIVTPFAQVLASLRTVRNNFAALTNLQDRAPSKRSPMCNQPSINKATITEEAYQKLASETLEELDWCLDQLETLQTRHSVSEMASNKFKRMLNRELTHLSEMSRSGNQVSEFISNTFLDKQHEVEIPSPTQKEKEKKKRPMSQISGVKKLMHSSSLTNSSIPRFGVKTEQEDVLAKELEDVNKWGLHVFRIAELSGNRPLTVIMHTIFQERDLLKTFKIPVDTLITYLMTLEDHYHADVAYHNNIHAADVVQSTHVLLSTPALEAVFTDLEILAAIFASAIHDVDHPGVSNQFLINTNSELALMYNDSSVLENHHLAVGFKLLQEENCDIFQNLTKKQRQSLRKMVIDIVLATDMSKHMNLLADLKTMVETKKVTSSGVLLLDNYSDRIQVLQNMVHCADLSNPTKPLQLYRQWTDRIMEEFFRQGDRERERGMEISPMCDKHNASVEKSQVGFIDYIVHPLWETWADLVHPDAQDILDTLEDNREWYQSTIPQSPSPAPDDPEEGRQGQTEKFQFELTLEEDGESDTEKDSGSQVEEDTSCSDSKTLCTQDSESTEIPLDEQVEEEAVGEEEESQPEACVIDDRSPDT
Experimental: as §1

PDE5A1 = biological target: T15, PDE5A1 (Homo sapiens, UniProt O76074); details: PDE5A1, 100 nM
T15 construct: Caliper
Experimental: as §1

PDE4B1 = biological target: T16, PDE4B1 (Homo sapiens, UniProt Q07343); details: PDE4B1, 100 nM
T16 construct: Caliper
T16 sequence (Q07343 whole entry, species assumed): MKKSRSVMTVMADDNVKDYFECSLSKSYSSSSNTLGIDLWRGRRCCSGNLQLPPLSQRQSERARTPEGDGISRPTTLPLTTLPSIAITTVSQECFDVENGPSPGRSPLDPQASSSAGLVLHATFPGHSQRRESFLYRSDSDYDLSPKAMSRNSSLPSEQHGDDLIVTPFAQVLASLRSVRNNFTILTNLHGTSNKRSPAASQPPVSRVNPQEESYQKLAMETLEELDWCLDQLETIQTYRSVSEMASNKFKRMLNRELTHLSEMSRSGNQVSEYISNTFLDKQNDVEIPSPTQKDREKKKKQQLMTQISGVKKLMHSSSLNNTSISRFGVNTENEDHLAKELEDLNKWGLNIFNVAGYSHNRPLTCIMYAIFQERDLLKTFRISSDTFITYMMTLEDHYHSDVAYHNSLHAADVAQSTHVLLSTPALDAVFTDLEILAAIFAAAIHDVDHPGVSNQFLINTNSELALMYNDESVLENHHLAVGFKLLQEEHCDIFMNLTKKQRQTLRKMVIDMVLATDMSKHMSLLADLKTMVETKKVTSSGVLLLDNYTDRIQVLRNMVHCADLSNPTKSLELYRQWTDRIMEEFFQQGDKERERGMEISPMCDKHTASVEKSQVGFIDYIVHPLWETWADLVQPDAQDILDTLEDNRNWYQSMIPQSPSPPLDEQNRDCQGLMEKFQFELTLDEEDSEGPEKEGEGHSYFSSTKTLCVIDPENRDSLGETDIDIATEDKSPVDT
Experimental: as §1

PDE7B = biological target: T17, PDE7B (Homo sapiens, UniProt Q9NP56); details: 100 nM
T17 construct: Caliper
Experimental: as §1

[1] = replicate #1, read-out: % inh. #1
[2] = replicate #2, read-out: % inh. #2

## CCN(CC)c1ccc(C2=NNC(=O)CC2C)cc1[N+](=O)[O-] (stereo not drawn) [DNMDP, 6-(4-(diethylamino)-3-nitrophenyl)-5-methyl-4,5-dihydropyridazin-3(2H)-one]
PDE3B; read-out: % inhibition
  inhibition at 0.1 µM: 97%
PDE3B; [1]
  inhibition at 0.1 µM: 98%
PDE3B; [2]
  inhibition at 0.1 µM: 97%
PDE8A1; [1]
  inhibition at 0.1 µM: 10%
PDE8A1; [2]
  inhibition at 0.1 µM: 12%
PDE8A1; read-out: % inhibition
  inhibition at 0.1 µM: 11%
PDE4A1A; read-out: % inhibition
  inhibition at 0.1 µM: 16%
PDE4A1A; [1]
  inhibition at 0.1 µM: 14%
PDE4A1A; [2]
  inhibition at 0.1 µM: 18%
PDE3A; read-out: % inhibition
  inhibition at 0.1 µM: 95%
PDE3A; [1]
  inhibition at 0.1 µM: 95%
PDE3A; [2]
  inhibition at 0.1 µM: 95%
PDE11A; read-out: % inhibition
  inhibition at 0.1 µM: 16%
PDE11A; [1]
  inhibition at 0.1 µM: 14%
PDE11A; [2]
  inhibition at 0.1 µM: 18%
PDE1B; read-out: % inhibition
  inhibition at 0.1 µM: -2%
PDE1B; [1]
  inhibition at 0.1 µM: -5%
PDE1B; [2]
  inhibition at 0.1 µM: 0%
PDE4D3; [1]
  inhibition at 0.1 µM: 14%
PDE4D3; [2]
  inhibition at 0.1 µM: 16%
PDE4D3; read-out: % inhibition
  inhibition at 0.1 µM: 15%
PDE7A; read-out: % inhibition
  inhibition at 0.1 µM: 22%
PDE7A; [1]
  inhibition at 0.1 µM: 24%
PDE7A; [2]
  inhibition at 0.1 µM: 20%
PDE10A2; [1]
  inhibition at 0.1 µM: 67%
PDE10A2; [2]
  inhibition at 0.1 µM: 70%
PDE10A2; read-out: % inhibition
  inhibition at 0.1 µM: 68%
PDE9A2; [1]
  inhibition at 0.1 µM: 0%
PDE9A2; [2]
  inhibition at 0.1 µM: 5%
PDE9A2; read-out: % inhibition
  inhibition at 0.1 µM: 2%
PDE10A1; [1]
  inhibition at 0.1 µM: 61%
PDE10A1; [2]
  inhibition at 0.1 µM: 65%
PDE10A1; read-out: % inhibition
  inhibition at 0.1 µM: 63%
PDE4C1; [1]
  inhibition at 0.1 µM: 10%
PDE4C1; [2]
  inhibition at 0.1 µM: 14%
PDE4C1; read-out: % inhibition
  inhibition at 0.1 µM: 12%
PDE2A; read-out: % inhibition
  inhibition at 0.1 µM: 8%
PDE2A; [1]
  inhibition at 0.1 µM: 6%
PDE2A; [2]
  inhibition at 0.1 µM: 10%
PDE1C; read-out: % inhibition
  inhibition at 0.1 µM: 5%
PDE1C; [1]
  inhibition at 0.1 µM: 2%
PDE1C; [2]
  inhibition at 0.1 µM: 9%
PDE1A1
  % inhibition: 5%
PDE1A1; replicate #1
  % inh. #1: 3%
PDE1A1; replicate #2
  % inh. #2: 7%
PDE4D7; [1]
  inhibition at 0.1 µM: 19%
PDE4D7; [2]
  inhibition at 0.1 µM: 20%
PDE4D7; read-out: % inhibition
  inhibition at 0.1 µM: 20%
PDE5A1; [1]
  inhibition at 0.1 µM: 16%
PDE5A1; [2]
  inhibition at 0.1 µM: 16%
PDE5A1; read-out: % inhibition
  inhibition at 0.1 µM: 16%
PDE4B1; [1]
  inhibition at 0.1 µM: 21%
PDE4B1; [2]
  inhibition at 0.1 µM: 20%
PDE4B1; read-out: % inhibition
  inhibition at 0.1 µM: 21%
PDE7B; read-out: % inhibition
  inhibition at 0.1 µM: 8%
PDE7B; [1]
  inhibition at 0.1 µM: 5%
PDE7B; [2]
  inhibition at 0.1 µM: 11%
